From ChEMBL document CHEMBL1143401, “New small-molecule synthetic antimycobacterials” (Antimicrob Agents Chemother, 2005) come the findings set out here.

Structures are written as SMILES. Converted amounts (≈) assume the structure as drawn.

Series [1] deals with Mycobacterium tuberculosis. Put plainly: Antimycobacterial activity against Mycobacterium tuberculosis. Type of series: functional.
Series [2] deals with Mycobacterium tuberculosis. Put plainly: Antimycobacterial activity against Mycobacterium tuberculosis H37Rv. Type of series: functional.
Series [3] is described as follows: Selectivity index, ratio of MIC for Mycobacterium tuberculosis to cytotoxicity to […] V79 cells. Type of series: functional.
In series [4] the test system is Mycobacterium tuberculosis. Put plainly: Antimycobacterial activity against Mycobacterium tuberculosis H37Ra. The series is classed as functional.
Series [5] can be described thus: Toxicity assessed as haemolysis in RBC. The series is classed as cell-based, Erythrocyte. The conditions noted are these: red blood cells (RBC); read-out: LD50 (the source's name).
Series [6] can be described thus: Selectivity index, ratio of MIC for Mycobacterium tuberculosis to cytotoxicity to african green monkey Vero cells. Type of series: functional.
In series [7] the target is T1, Cell division protein FtsZ (Mycobacterium tuberculosis) (UniProt P9WN95).
T1 sequence (whole entry): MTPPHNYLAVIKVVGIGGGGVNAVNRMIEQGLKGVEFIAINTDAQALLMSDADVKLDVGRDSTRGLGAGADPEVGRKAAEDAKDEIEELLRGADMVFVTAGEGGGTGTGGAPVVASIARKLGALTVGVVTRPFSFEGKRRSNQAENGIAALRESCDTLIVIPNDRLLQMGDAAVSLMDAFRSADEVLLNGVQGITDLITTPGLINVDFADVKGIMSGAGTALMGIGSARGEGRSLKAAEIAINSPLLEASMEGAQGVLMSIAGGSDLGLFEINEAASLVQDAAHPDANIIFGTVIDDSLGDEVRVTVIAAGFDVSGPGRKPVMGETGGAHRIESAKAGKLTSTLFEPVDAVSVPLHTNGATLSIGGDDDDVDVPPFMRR
The series is described as follows: Inhibition of Mycobacterium tuberculosis FtsZ.

In series [8] the target is T2, Enoyl-[acyl-carrier-protein] reductase [NADH] (Mycobacterium tuberculosis) (UniProt P9WGR1).
T2 sequence (whole entry): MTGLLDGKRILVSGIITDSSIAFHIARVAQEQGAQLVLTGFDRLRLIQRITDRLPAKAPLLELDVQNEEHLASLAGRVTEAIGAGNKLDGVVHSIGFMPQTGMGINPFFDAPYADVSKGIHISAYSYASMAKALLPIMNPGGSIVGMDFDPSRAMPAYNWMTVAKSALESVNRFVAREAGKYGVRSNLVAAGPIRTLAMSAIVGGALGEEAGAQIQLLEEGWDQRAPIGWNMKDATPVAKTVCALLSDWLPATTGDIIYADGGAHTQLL
Put plainly: Inhibition of Mycobacterium tuberculosis InhA at 40 uM.

The MIC is the least concentration at which growth counts as inhibited. By inhibition is commonly meant the drop in the measured response relative to a control, in per cent.

In series [1], `CCCCCCCCCCCCCCCCN[C@H](CC(=O)OCC)[C@@H]1O[C@@H]2OC(C)(C)O[C@@H]2C1OC` (stereo partly drawn) returned an MIC of 3.12 mg/L (≈ 6.07 µM).
For `CCCCOc1ccc2nc(C)cc(N/N=C/c3cccc4c(OC)cccc34)c2c1`, in series [1], the MIC worked out at 0.78 mg/L (≈ 1.89 µM).
`CC(=O)/C(=C/C=C/[C@@H](OCc1ccccc1)[C@H](COCc1ccccc1)OCc1ccccc1)CCl` registered an MIC in series [1] of 3.1 mg/L (≈ 6.14 µM).
`CC1Nc2nc(NC(=O)Oc3ccccc3)cc(N)c2N=C1c1ccccc1` (stereo not drawn) displayed an MIC in series [1] of 1.3 mg/L (≈ 3.48 µM).
Turning to `CN(C)C/C=C(\c1ccc(Br)cc1)c1ccc(-c2ccccc2)cc1`, the MIC in series [2], in series [1] and in series [4] was 1.6 mg/L (≈ 4.08 µM) in each case. Also, the “Selectivity Index” value in series [3] is given as under 2.
On to `COc1nc2ccc(Br)cc2cc1[C@@H](c1ccccc1)[C@@](O)(CCN(C)C)c1cccc2ccccc12` [BEDAQUILINE], for which the MIC in series [1] turned out to be 0.03 mg/L (≈ 0.054 µM).
Molecule `O=[N+]([O-])c1cn2c(n1)OC[C@@H](OCc1ccc(OC(F)(F)F)cc1)C2` [PRETOMANID] displayed an MIC in series [1] of 0.13 mg/L (≈ 0.362 µM).
On the same count and under the same terms, to `CC(=O)NC[C@H]1CN(c2ccc(N3CCSCC3)c(F)c2)C(=O)O1` [SUTEZOLID] belongs at most 0.125 mg/L; to `Cc1ccc2nc(SCc3cc([N+](=O)[O-])cc([N+](=O)[O-])c3)[nH]c2c1`, 1.3 mg/L (≈ 3.78 µM).
On to `CN(C)S(=O)(=O)n1cnc2c(=S)[nH]cnc21`, for which the lowest concentration to inhibit growth in series [1] (MIC) was 0.78 mg/L (≈ 3.01 µM).
For `CCCCCCCCCCS(=O)(=O)CC(N)=O`, the MIC in series [1] amounted to 0.75 mg/L (≈ 2.85 µM).
Same read-out and setting: the same measure for `CC(=O)NCCCC[C@H](OC(C)=O)[C@@H](COC(C)=O)OC(C)=O`: at most 6.25 mg/L; for `S=c1oc2c(Cl)cc(Cl)cc2c(=S)n1-c1cccc(Cl)c1`: 4 mg/L (≈ 10.7 µM); for `O=C(Nc1ncccc1[N+](=O)[O-])c1c(O)cccc1Cl`: under 1 mg/L.
`CC1(C)O[C@H]2OC(COCC(O)CNCCCCCCCCCCCCNCC(O)COCC3O[C@@H]4OC(C)(C)O[C@@H]4[C@H]4OC(C)(C)O[C@@H]34)[C@@H]3OC(C)(C)O[C@@H]3[C@H]2O1` (stereo partly drawn) came in with a minimum inhibitory concentration (MIC) in series [1] of 1.56 mg/L (≈ 1.87 µM).
Take `O=C(COc1cnccn1)N/N=c1\scc(-c2ccc(Br)cc2)n1-c1ccc(Cl)cc1[N+](=O)[O-]`: in series [1], 0.3 mg/L (≈ 0.534 µM) was the least that counted as inhibitory (MIC). The HC50 in series [5] was over 500 µg/mL.
For the molecule `CCCSc1nc(Cl)c(C#N)c(-c2ccc(F)cc2)n1`, in series [1], 0.78 mg/L (≈ 2.53 µM) was the least that counted as inhibitory (MIC).
Regarding `c1ccc(-c2ccc(CNc3ccc(CN4CCSCC4)cc3)cc2)cc1`, the lowest concentration to inhibit growth in series [1] (MIC) was 0.5 mg/L (≈ 1.33 µM).
As for `[H][C@@]12CC[C@H](C(C)CCC(N)=O)[C@@]1(C)CC[C@]1([H])[C@@]3(C)CC[C@]4(C[C@@]3([H])C[C@@H](OC(C)=O)[C@@]21[H])OOC1(CC[C@@H](C)CC1)OO4` (stereo partly drawn), it took 3.12 mg/L (≈ 5.42 µM) to inhibit growth in series [1] (MIC).
In the case of `c1ccc(-c2ccc(CNc3cccc(-c4c[nH]cn4)c3)cc2)cc1`, in series [6], the “Selectivity Index” value was found to be 16. The molecule also yielded an MIC in series [1] of 4 mg/L (≈ 12.3 µM).
Turning to `CC(C)c1ccc(-c2c(N)nnc3c2c2ccccc2n3C)cc1`, in series [1], the lowest concentration to inhibit growth (MIC) was 1.42 mg/L (≈ 4.49 µM).
For the molecule `O=[N+]([O-])c1c[nH]cc1-c1ccc(Cl)cc1Cl`, in series [1], the MIC was 1 mg/L (≈ 3.89 µM).
Same read-out and setting: the same measure for `CCCCCCCCCCCCCCCCOCCCCOP(=O)(O)C[C@@H]1O[C@H](CO)[C@@H](O)[C@@H]1O`: 3.13 mg/L (≈ 5.97 µM).
For the molecule `N#Cc1c(N2CCN(c3ccc([N+](=O)[O-])cc3)CC2)[n+]([O-])c2ccccc2[n+]1[O-]`, inhibition of growth in series [1] (MIC) required 0.1 mg/L (≈ 0.255 µM).
For the molecule `Clc1nc(C2CCCO2)c2ncn(Cc3ccccc3)c2n1` (stereo not drawn), the “Selectivity Index” value in series [6] is reported as 10.6. This molecule had an MIC in series [1] of 0.78 mg/L (≈ 2.48 µM).
In series [1], `COc1ccc(C(=O)Nc2ccc(C(=O)NN3C(=O)CSC3c3ccc(F)cc3)cc2)cc1` (stereo not drawn) displayed an MIC of 6.25 mg/L (≈ 13.4 µM).
On the same count and under the same terms, the same measure for `COC(=O)c1ccccc1S(=O)(=O)NC(=O)Nc1nc(C)cc(C)n1` [SULFOMETURON METHYL]: 0.3 mg/L (≈ 0.823 µM).
In the case of `Cc1c(CN2CCN(C)CC2)cc(-c2ccc(Cl)cc2)n1-c1ccc(Cl)cc1`, the “Selectivity Index” value in series [6] amounted to 5.6. The MIC in series [1] stood at 0.7 mg/L (≈ 1.69 µM).
As for `NS#Cc1cc(SCc2ccccc2F)ccn1`, in series [1], the MIC came to 1.2 mg/L (≈ 4.31 µM).
On to `CCOC(=O)Nc1cc(NCCCCN(CC)CC)c2nc(-c3ccccc3)c(-c3ccccc3)nc2n1`, for which, in series [7], the ID50 came to 52 µM. The same molecule gave an MIC in series [1] of 0.15 mg/L (≈ 0.293 µM).
The molecule `CCCCCCCCCCNC[C@H]1O[C@H](O[C@H]2O[C@H](CNCCCCCCCCCC)[C@@H](O)[C@H](O)[C@H]2O)[C@H](O)[C@@H](O)[C@@H]1O` displayed an MIC in series [1] of 1.3 mg/L (≈ 2.09 µM).
Take `OC12CCCC(C1)SC(c1ccccc1)=N2` (stereo not drawn): the MIC in series [1] was at most 6.25 mg/L.
On to `O=[N+]([O-])c1ccc(-c2cnn(-c3nccc(C(F)(F)F)n3)c2)c([N+](=O)[O-])c1`, for which the MIC in series [2] and in series [1] was 2.5 mg/L (≈ 6.57 µM) each time. This molecule came in with an inhibition in series [8] of 91%.
